Assay results published in patent US8586611B2 (priority 2005, dated 2013).

Key:
Assay type in all cases: in vivo
Plasmopara viticola = assay: Test B: grape downy mildew, spray 24 h after inoculation (disease rating, 100 = 100% disease control)
Excerpt: (§1) The test compounds were first dissolved in acetone in an amount equal to 3% of the final volume and then suspended at the desired concentration (in ppm) in acetone and purified water (50/50 mix by volume) containing 250 ppm of the surfactant Trem® 014 (polyhydric alcohol esters). The resulting test suspensions were then used in tests A-E. Spraying a 200 ppm test suspension to the point of run-off on the test plants was the equivalent of a rate of 500 g/ha.
Grape seedlings were inoculated with a spore suspension of Plasmopara viticola (the causal agent of grape downy mildew) and incubated in a saturated atmosphere at 20° C. for 24 h. After a short drying period, the test suspension was sprayed to the point of run-off on the grape seedlings and then moved to a growth chamber at 20° C. for 5 days, after which the test units were placed back into a saturated atmosphere at 20° C. for 24 h. Upon removal, disease ratings were made.
(§2) Results for Tests A-F are given in Table A. In the table, a rating of 100 indicates 100% disease control and a rating of 0 indicates no disease control (relative to the controls). A dash (-) indicates no test results.

Phytophthora infestans [1] = assay: whole plant or invertebrate; conditions: tomato late blight
Phytophthora infestans [2] = assay: whole plant or invertebrate; conditions: tomato late blight; remark: listed apart in the source
[3] = tested on: Erysiphe graminis f. sp. tritici; assay: Test E: wheat powdery mildew, spray the day before inoculation (disease rating, 100 = 100% disease control)
Excerpt: as §1
The test suspension was sprayed to the point of run-off on wheat seedlings. The following day the seedlings were inoculated with a spore dust of Erysiphe graminis f. sp. tritici, (the causal agent of wheat powdery mildew) and incubated in a growth chamber at 20° C. for 7 days, after which disease ratings were made.
as §2

[4] = sprayed 24 h after inoculation, unmarked compounds (no asterisk, not 40 or 10 ppm)
[5] = sprayed the day before inoculation, unmarked compounds (no asterisk, not 40 or 10 ppm)
[6] = sprayed 17 h after inoculation, unmarked compounds (no asterisk, not 40 or 10 ppm)
[7] = sprayed the day before inoculation, 7 days at 20° C., unmarked compounds (no asterisk, not 40 or 10 ppm)
[8] = sprayed 24 h after inoculation, tested at 10 ppm (**)
[9] = sprayed the day before inoculation, tested at 10 ppm (**)
[10] = sprayed 17 h after inoculation, tested at 10 ppm (**)
[11] = spray 24 h after inoculation, compounds without asterisk (not 40 or 10 ppm)
[12] = spray the day before inoculation, compounds without asterisk (not 40 or 10 ppm)
[13] = spray 17 h after inoculation, compounds without asterisk (not 40 or 10 ppm)

Row | Structure (SMILES) | Test B disease rating (100 = 100% disease control, 0 = no disease control) (Plasmopara viticola; [4]) | Test C disease rating (100 = 100% disease control, 0 = no disease control) (Phytophthora infestans [1]; [5]) | Test D disease rating (100 = 100% disease control, 0 = no disease control) (Phytophthora infestans [2]; [6]) | Test B disease rating (100 = 100% disease control, 0 = no disease control) (Plasmopara viticola; [11]) [%] | Test C disease rating (100 = 100% disease control, 0 = no disease control) (Phytophthora infestans [1]; [12]) [%] | Test E disease rating (100 = 100% disease control, 0 = no disease control) [3, 12] [%] | other results
1 | Cc1cc(C(F)(F)F)nn1CC(=O)N1CCC(c2nc(C(=O)N3Cc4ccccc4C3)cs2)CC1 [compound 295] | 39 | 95 | 39 |  |  |  | Test E disease rating (100 = 100% disease control, 0 = no disease control) [3, 7]: 0
2 | Cc1cc(C(F)(F)F)nn1CC(=O)N1CCC(c2nc(C(=O)N3Cc4ccccc4C3C)cs2)CC1 (centres unmarked) [compound 298] |  |  |  |  |  |  | Test B disease rating (100 = 100% disease control, 0 = no disease control) (Plasmopara viticola; [8]): 57; Test C disease rating (100 = 100% disease control, 0 = no disease control) (Phytophthora infestans [1]; [9]): 80; Test D disease rating (100 = 100% disease control, 0 = no disease control) (Phytophthora infestans [2]; [10]): 0; Test E disease rating (100 = 100% disease control, 0 = no disease control) ([3]; sprayed the day before inoculation, 7 days at 20° C., tested at 10 ppm (**)): 0
3 | Cc1cc(C(F)(F)F)nn1CC(=O)N1CCC(c2noc(C(=O)N(C)[C@H](C)c3ccccc3)n2)CC1 [compound 216] |  |  |  | 72 | 95 | 0 | Test D disease rating (100 = 100% disease control, 0 = no disease control) (Phytophthora infestans [2]; [13]): 16%
4 | CCCN(C(=O)c1csc(C2CCN(C(=O)Cc3cc(C)ccc3C)CC2)n1)[C@H](C)c1ccccc1 [compound 287] | 0 | 50 | 0 |  |  |  | Test E disease rating (100 = 100% disease control, 0 = no disease control) [3, 7]: 0
5 | C[C@@H](NC(=O)c1csc(C2CCN(C(=O)Cc3cccc(Br)c3)CC2)n1)c1ccc([N+](=O)[O-])cc1 [compound 273] | 44 | 0 | 0 |  |  |  | Test E disease rating (100 = 100% disease control, 0 = no disease control) [3, 7]: 0
6 | C=CCC(c1ccccc1)N(C)C(=O)c1csc(C2CCN(C(=O)Cc3cc(C)ccc3C)CC2)n1 (centres unmarked) [compound 104] |  |  |  | 100 | 87 | 0 | 
7 | COCC(c1ccccc1)N(C)C(=O)c1csc(C2CCN(C(=O)Cc3cc(C)ccc3C)CC2)n1 (centres unmarked) [compound 109] |  |  |  | 99 | 99 | 94 | 
8 | Cc1cc(C(F)(F)F)nn1CC(=O)N1CCC(c2nc(C(=O)N[C@@H]3CCCc4ccccc43)cs2)CC1 [compound 305] | 100 | 100 | 99 |  |  |  | 
9 | Cc1ccc(C)c(CC(=O)N2CCC(c3nc(C(=O)N(C)[C@H](C)c4cccc5ccccc45)cs3)CC2)c1 [compound 105] |  |  |  | 96 | 100 | 0 | 
10 | CC[C@H](c1ccccc1)N(C)C(=O)c1csc(C2CCN(C(=O)Cc3cccc(Br)c3)CC2)n1 [compound 107] |  |  |  | 99 | 100 | 0 | 
11 | CCN(C(=O)c1csc(C2CCN(C(=O)Cn3nc(C(F)(F)F)cc3C)CC2)n1)[C@H](C)c1ccccc1 [compound 302] | 86 | 95 | 26 |  |  |  | 
12 | C=CC(c1ccccc1)N(C)C(=O)c1csc(C2CCN(C(=O)Cc3cc(C)ccc3C)CC2)n1 (centres unmarked) [compound 103] |  |  |  | 100 | 71 | 79 | 
13 | CC[C@H](c1ccccc1)N(C)C(=O)c1csc(C2CCN(C(=O)Cc3cccc(C(F)(F)F)c3)CC2)n1 [compound 108] |  |  |  | 99 | 100 | 0 | 
14 | C[C@H](NC(=O)c1csc(C2CCN(C(=O)Cc3ccccc3Cl)CC2)n1)c1ccccc1 [compound 260] | 14 | 0 |  |  |  |  | Test E disease rating (100 = 100% disease control, 0 = no disease control) [3, 7]: 0
15 | Cc1cc(Br)nn1CC(=O)N1CCC(c2nc(C(=O)N(C)[C@@H]3CCCc4ccccc43)cs2)CC1 [compound 258] |  |  |  |  |  |  | Test B disease rating (100 = 100% disease control, 0 = no disease control) (Plasmopara viticola; [8]): 100; Test C disease rating (100 = 100% disease control, 0 = no disease control) (Phytophthora infestans [1]; [9]): 100; Test D disease rating (100 = 100% disease control, 0 = no disease control) (Phytophthora infestans [2]; [10]): 99
16 | Cc1ccc(C)c(CC(=O)N2CCC(c3nc(C(=O)N(C)[C@H](C)c4ccc5ccccc5c4)cs3)CC2)c1 [compound 106] |  |  |  | 0 | 24 | 0 | 
17 | Cc1cc(C(F)(F)F)nn1CC(=O)N1CCC(c2nc(C(=O)N[C@H](C)c3ccccc3)cs2)CC1 [compound 301] | 99 | 99 | 80 |  |  |  | 
18 | Cc1cc(Cl)nn1CC(=O)N1CCC(c2nc(C(=O)N(C)[C@@H]3CCCc4ccccc43)cs2)CC1 [compound 257] |  |  |  |  |  |  | Test B disease rating (100 = 100% disease control, 0 = no disease control) (Plasmopara viticola; [8]): 99; Test C disease rating (100 = 100% disease control, 0 = no disease control) (Phytophthora infestans [1]; [9]): 100; Test D disease rating (100 = 100% disease control, 0 = no disease control) (Phytophthora infestans [2]; [10]): 99
19 | Cc1ccc(C)c(CC(=O)N2CCC(c3nc(C(=O)N(C)C(C#N)c4ccccc4)cs3)CC2)c1 (centres unmarked) [compound 102] |  |  |  | 100 | 99 | 0 | 
20 | Cc1cc(C(F)(F)F)nn1CC(=O)N1CCC(n2nnc(C(=O)N(C)[C@@H]3CCCc4ccccc43)n2)CC1 [compound 256] |  |  |  |  |  |  | Test B disease rating (100 = 100% disease control, 0 = no disease control) (Plasmopara viticola; sprayed 24 h after inoculation, tested at 40 ppm (*)): 99; Test C disease rating (100 = 100% disease control, 0 = no disease control) (Phytophthora infestans [1]; sprayed the day before inoculation, tested at 40 ppm (*)): 100; Test D disease rating (100 = 100% disease control, 0 = no disease control) (Phytophthora infestans [2]; sprayed 17 h after inoculation, tested at 40 ppm (*)): 86
21 | C=CCN(C(=O)c1csc(C2CCN(C(=O)Cn3nc(C(F)(F)F)cc3C)CC2)n1)[C@H](C)c1ccccc1 [compound 304] | 72 | 57 | 26 |  |  |  | 
22 | COc1ccc(CCN(C)C(=O)c2csc(C3CCN(C(=O)Cc4cc(C)ccc4C)CC3)n2)cc1OC [compound 171] |  |  |  | 0 |  | 0 | Test D disease rating (100 = 100% disease control, 0 = no disease control) (Phytophthora infestans [2]; [13]): 24%
23 | CCCN(C(=O)c1csc(C2CCN(C(=O)Cn3nc(C(F)(F)F)cc3C)CC2)n1)[C@H](C)c1ccccc1 [compound 303] | 45 | 95 | 26 |  |  |  | 
24 | CCN(C(=O)c1csc(C2CCN(C(=O)Cn3nc(C(F)(F)F)cc3C)CC2)n1)[C@@H]1CCCc2ccccc21 [compound 306] | 96 | 100 | 83 |  |  |  | 
